Patent US20240173439A1, “FLUORINE-CONTAINING COMPOUND AND CONTRAST MEDIUM” (TDK CORPORATION, priority 2021, published 2024)

assay: Measurement of 19F spin-lattice relaxation time (T1) by inversion recovery, 500 MHz NMR; assay type: physicochemical; conditions: 50 mM in CDCl3, 36° C.
Method: (Measurement of ^19F Spin-Lattice Relaxation Time (T1))
A compound was dissolved in a deuterated chloroform solution at a concentration of 50 mM, and the longitudinal relaxation time (T1) of ^19F nucleus was measured through an inversion recovery method using a 500 MHz NMR device under the conditions shown below.
Measurement Conditions • NMR device: JNM-ECA500 (manufactured by JEOL) • Measurement temperature: 36° C. • Pulse sequence: double_pulse • relaxation_delay: 10[s] • tau_interval: 4, 3, 2, 1, 0.8, 0.6, 0.4, 0.2, 0.1[s], 80, 60, 40, 20, 10, 8, 6, 4, 2[ms] • Number of times of integration: 16 times

| Compound | T1 (19F spin-lattice relaxation time) |
| --- | --- |
| CC1(C)CC(OCCCCOC(C(F)(F)F)(C(F)(F)F)C(F)(F)F)CC(C)(C)N1[O] [Compound 11, 4-(4-((1,1,1,3,3,3-hexafluoro-2-(trifluoromethyl)propane-2-yl)oxy)butoxy)-2,2,6,6-tetra methylpiperidine-1-oxyl] | 0.134 s |
| CC1(C)CC(OCCOC(C(F)(F)F)(C(F)(F)F)C(F)(F)F)CC(C)(C)N1[O] [Compound 12] | 0.121 s |
| CC1(C)CC(OCCC(F)(F)F)CC(C)(C)N1[O] [Compound 13] | 0.105 s |
| CC1(C)CC(OCCCC(F)(F)F)CC(C)(C)N1[O] [Compound 14] | 0.117 s |
| CC1(C)CC(OC(C(F)(F)F)(C(F)(F)F)C(F)(F)F)CC(C)(C)N1[O] [Compound 15, 4-((1,1,1,3,3,3-hexafluoro-2-(trifluoromethyl)propane-2-yl)oxy)-2,2,6,6-tetramethylpiper idine-1-oxyl] | 0.094 s |
| CC1(C)CC(OC(C(F)(F)F)C(F)(F)F)CC(C)(C)N1[O] [Compound 16] | 0.096 s |
| CC1(C)CC(OCC(F)(F)F)CC(C)(C)N1[O] [Compound 17] | 0.101 s |
| CC1(C)CC(Oc2ccccc2C(F)(F)F)CC(C)(C)N1[O] [Compound 18] | 0.098 s |
| CC1(C)CC(Oc2cccc(C(F)(F)F)c2)CC(C)(C)N1[O] [Compound 19] | 0.110 s |
| CC1(C)CC(Oc2cc(C(F)(F)F)cc(C(F)(F)F)c2)CC(C)(C)N1[O] [Compound 20] | 0.108 s |
| CC1(C)CC(Oc2ccc(C(F)(F)F)cc2)CC(C)(C)N1[O] [Compound 21] | 0.123 s |
| CCC1(CC)CC(OCCCCOC(C(F)(F)F)(C(F)(F)F)C(F)(F)F)CC(CC)(CC)N1[O] [Compound 22, 4-(4-((1,1,1,3,3,3-hexafluoro-2-(trifluoromethyl)propane-2-yl)oxy)butoxy)-2,2,6,6-tetraet hylpiperidine-1-oxyl] | 0.130 s |
| CCC1(CC)CC(OCCOC(C(F)(F)F)(C(F)(F)F)C(F)(F)F)CC(CC)(CC)N1[O] [Compound 23] | 0.118 s |
| CC1(C)CC(OC(C(F)(F)F)(C(F)(F)F)C(F)(F)F)CC(C)(C)N1[O] [Compound 24, 4-((1,1,1,3,3,3-hexafluoro-2-(trifluoromethyl)propane-2-yl)oxy)-2,2,6,6-tetramethylpiperidine-1-oxyl] | 0.092 s |
| CCC1(CC)CC(OCCCCOC(C(F)(F)F)(C(F)(F)F)C(F)(F)F)CC(C)(C)N1[O] (stereo not shown) [Compound 25, 4-(4-((1,1,1,3,3,3-hexafluoro-2-(trifluoromethyl)propane-2-yl)oxy)butoxy)-2,2-diethyl-6,6-dimethylpiperidine-1-oxyl] | 0.127 s |
| CC1(C)CC(OCCCCOC(C(F)(F)F)C(F)(F)F)CC(C)(C)N1[O] [Compound 26, 4-(4-((1,1,1,3,3,3-hexafluoropropane-2-yl)oxy)butoxy)-2,2,6,6-tetramethylpiperidine-1-o xyl] | 0.130 s |
| CC1(C)CC(OCCCCCCCCOC(C(F)(F)F)(C(F)(F)F)C(F)(F)F)CC(C)(C)N1[O] [Compound 27, 4-((8-((1,1,1,3,3,3-hexafluoro-2-(trifluoromethyl)propane-2-yl)oxy)octyl)oxy)-2,2,6,6-tet ramethylpiperidine-1-oxyl] | 0.130 s |
| CC1(C)CC(OCCCCCCCCCCCCOC(C(F)(F)F)(C(F)(F)F)C(F)(F)F)CC(C)(C)N1[O] [Compound 28] | 0.214 s |
| CC1(C)CC(OCCCCCCCCCCCCCCCCOC(C(F)(F)F)(C(F)(F)F)C(F)(F)F)CC(C)(C)N1[O] [Compound 29] | 0.284 s |
